Literature values in patent US20170189347A1, “TRANSDERMAL DELIVERY SYSTEM” (priority 2014, published 2017).

How the values were obtained:
[1] = not given; remark: listed apart in the source
MAO-B = MAO-B (Homo sapiens, UniProt P27338); conditions: in humans
MAO-A = MAO-A (Homo sapiens, UniProt P21397); conditions: in humans
Chain of MAO-A (P21397 whole entry): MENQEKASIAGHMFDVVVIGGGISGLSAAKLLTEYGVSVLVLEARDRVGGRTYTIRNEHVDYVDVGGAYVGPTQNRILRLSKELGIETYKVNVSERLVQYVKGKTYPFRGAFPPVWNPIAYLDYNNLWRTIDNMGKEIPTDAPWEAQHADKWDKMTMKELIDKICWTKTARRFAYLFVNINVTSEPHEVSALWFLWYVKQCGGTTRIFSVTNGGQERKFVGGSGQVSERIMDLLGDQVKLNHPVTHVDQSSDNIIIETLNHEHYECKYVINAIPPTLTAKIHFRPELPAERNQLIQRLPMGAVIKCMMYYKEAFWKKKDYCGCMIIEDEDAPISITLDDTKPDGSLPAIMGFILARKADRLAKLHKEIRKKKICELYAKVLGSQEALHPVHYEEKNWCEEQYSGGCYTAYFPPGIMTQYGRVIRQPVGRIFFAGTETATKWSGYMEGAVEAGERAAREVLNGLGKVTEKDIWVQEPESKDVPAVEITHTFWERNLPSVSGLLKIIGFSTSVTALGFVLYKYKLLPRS

Chain of MAO-B (P27338 whole entry): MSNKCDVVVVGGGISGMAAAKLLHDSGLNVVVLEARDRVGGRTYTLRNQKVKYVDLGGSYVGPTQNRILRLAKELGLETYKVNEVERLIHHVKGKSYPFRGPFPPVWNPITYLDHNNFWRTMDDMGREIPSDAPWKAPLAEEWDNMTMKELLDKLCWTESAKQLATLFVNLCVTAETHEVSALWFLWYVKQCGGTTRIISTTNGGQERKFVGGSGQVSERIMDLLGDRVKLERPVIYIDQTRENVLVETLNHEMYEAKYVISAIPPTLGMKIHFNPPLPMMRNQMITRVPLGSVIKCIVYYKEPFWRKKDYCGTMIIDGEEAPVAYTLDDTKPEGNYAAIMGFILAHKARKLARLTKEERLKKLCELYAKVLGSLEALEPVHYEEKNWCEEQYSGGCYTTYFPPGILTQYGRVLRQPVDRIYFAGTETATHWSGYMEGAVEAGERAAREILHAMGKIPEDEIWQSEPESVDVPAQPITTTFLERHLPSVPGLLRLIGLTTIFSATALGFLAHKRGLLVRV

Structure (SMILES) | solubility in water | solubility in non-crosslinked acrylic copolymer PSA DT 87-4098 ([1]; DT 87-4098) [wt %] | solubility in non-crosslinked acrylic copolymer PSA DT 87-9088 ([1]; DT 87-9088) [wt %] | solubility in non-crosslinked acrylic copolymer PSA DT 87-9301 ([1]; DT 87-9301) [wt %] | solubility in polyisobutylene (PIB) PSA ([1]; PIB) | solubility in silicone PSA ([1]; silicone PSA) [wt %] | inhibition of MAO-B (MAO-B) | inhibition of MAO-A (MAO-A)
C#CCN[C@@H]1CCc2ccccc21 [rasagiline, (1R)-N-(prop-2-yn-1-yl)-2,3-dihydro-1H-inden-1-amine] | 0.025 grams of drug per liter of water | 54 | 111 | 78 | about 8 wt % | ~6 | selectively inhibit MAO-B | not to inhibit MAO-A
C#CCN(C)[C@H](C)Cc1ccccc1 [selegiline] | 0.025 grams of drug per liter of water | – | – | – | – | – | – | –
